Here are results for five molecules from patent publication US5880157A, “Derivatives of tetramethylcyclopropane” (Yissum Research Development Company of the Hebrew …, priority 1994, dated 1999).

One may read the ED50 as the dose that gives a 50% effect, or the effect in half of the subjects. Usually TD50 stands for the 50% point of the dose-response relation for the toxic effect studied.

The subject of series [1] is maximal electroshock seizure (MES). Kind of series: maximal electroshock seizure (MES) test, rats. As to conditions: for ED50: Rattus norvegicus, read-out: MES ED50; for MES PI (protective index, TD50/ED50) / effective dose in the MES test (ED50) compared with Valproic Acid: rats; for effective dose in the MES test (ED50) compared with Valproic Acid: in words. An excerpt:
(§1) All compounds described before were screened for their ability to protect against seizures in two different models of epilepsy: the maximal electroshock seizure (MES) model; and the subcutaneous pentylenetetrazol (Metrazol) seizure threshold (s.c.Met) test. Agents effective in the MES model have been correlated with the ability to prevent the seizure spread, whereas those agents effective in the s.c. Met model have been correlated with the ability to raise the threshold for excitation of neural tissue. The PI value, the protective index, is calculated as described below.
(§2) The MES test is the most commonly used test to assess activity against these types of seizures.

The test system of series [2] is subcutaneous pentylenetetrazol (Metrazol) seizure threshold. Description: subcutaneous pentylenetetrazol (Metrazol) seizure threshold (s.c. Met) test, rats. The note with it: for ED50: Rattus norvegicus, sc, read-out: scMet ED50; for scMet PI (protective index, TD50/ED50): rats.
Source text: as §1, §2

Series [3] has as its system maximal electroshock seizure (MES). Description: maximal electroshock seizure (MES) test, mice. As to conditions: for ED50: Mus musculus, read-out: MES ED50; for MES PI (protective index, TD50/ED50) / effective dose in the MES test (ED50) compared with Valproic Acid: mice; for effective dose in the MES test (ED50) compared with Valproic Acid: in words.
Source text: as §1, §2
For orientation: In the maximal electroshock model the usual endpoint is tonic extension of the hind limbs.

The subject of series [4] is subcutaneous pentylenetetrazol (Metrazol) seizure threshold. Description: subcutaneous pentylenetetrazol (Metrazol) seizure threshold (s.c. Met) test, mice. The note with it: for ED50: Mus musculus, sc, read-out: scMet ED50; for scMet PI (protective index, TD50/ED50): mice; for effective doses in the s.c. Met test compared with VPA or ETS: mouse model, in words.
Source text: as §1, §2

The nature of series [5]: neurotoxicity, positional sense test and gait and stance test, rats (p.o.). It is filed as in vivo, rat. On the procedure: (§3) Neurotoxicity of the described compounds was assessed in mice (i.p. administration) by the rotorod ataxia test (See Swinyard et al., Supra, pages 85-100), and also in some cases in rats (p.o. administration) by the positional sense test and gait and stance test (see Swinyard above) .

Series [6] can be described thus: neurotoxicity, rotorod ataxia test, mice (i.p.). It counts as in vivo, mouse. On the procedure: as §3
The conditions of series [7]: in words; literature; cited from earlier work.

`CNC(=O)C1C(C)(C)C1(C)C` [Compound 1, N-Methyl-2,2,3,3-tetramethylcyclopropanecarboxamide]: in series [1], the median effective dose (ED50) came to 82 mg/kg; the “MES PI (protective index, TD50/ED50)” value is on record as 2.0; the “effective dose in the MES test (ED50) compared with Valproic Acid” value (shortened to “effective dose … compared with Valproic Acid”) is “lower effective dose in the MES test”. In series [2], the median effective dose (ED50) worked out at 45 mg/kg and the “scMet PI (protective index, TD50/ED50)” value amounted to 3.6. Further, in series [3], the ED50 is 98 mg/kg; the “MES PI (protective index, TD50/ED50)” value is 0.8; the “effective dose … compared with Valproic Acid” value was “lower effective dose in the MES test”. In series [4], the ED50 was 39 mg/kg; the “scMet PI (protective index, TD50/ED50)” value worked out at 2.1; the “effective doses in the s.c. Met test compared with VPA or ETS” value (from here on “effective doses … compared with VPA or ETS”) is “lower than that found for either VPA or ETS”. In series [5], the “TD50 (median neurological toxic dose)” value came to 163 mg/kg. Besides, the TD50 in series [6] (mouse, ip, read-out: TD50 (median neurological toxic dose)) was 83 mg/kg.
Regarding `CC1(C)C(C(=O)NCC(N)=O)C1(C)C` [Compound 2, N-[(2,2,3,3-Tetramethylcyclopropyl)carbonyl]-glycinamide], in series [1], the ED50 is 82 mg/kg; the “MES PI (protective index, TD50/ED50)” value is on record as greater than 6.1; the “effective dose … compared with Valproic Acid” value was “lower effective dose in the MES test”. Also, in series [2], the 50% effective dose (ED50) is greater than 250 mg/kg. In series [3], the ED50 worked out at 173 mg/kg; the “MES PI (protective index, TD50/ED50)” value was 1.5; the “effective dose … compared with Valproic Acid” value is reported as “lower effective dose in the MES test”. Further, in series [4], the ED50 is 115 mg/kg; the “scMet PI (protective index, TD50/ED50)” value is reported as 2.3; the “effective doses … compared with VPA or ETS” value is listed as “lower than that found for either VPA or ETS”. In addition, the TD50 in series [5] (rat, po, read-out: TD50 (median neurological toxic dose)) was greater than 500 mg/kg. In series [6], the “TD50 (median neurological toxic dose)” value was 259 mg/kg.
As to `CC1(C)C(C(N)=O)C1(C)C` [Compound 3, 2,2,3,3-Tetramethylcyclopropanecarboxamide], the 50% effective dose (ED50) in series [1] was greater than 250 mg/kg; in series [2], 52 mg/kg; in series [3] it was greater than 120 mg/kg; in series [4], 57 mg/kg. Further, the “scMet PI (protective index, TD50/ED50)” value in series [2] turned out to be 7.3; in series [4] it was 1.7. The “effective doses … compared with VPA or ETS” value in series [4] is “lower than that found for either VPA or ETS”. Besides, the “TD50 (median neurological toxic dose)” value in series [5] amounted to 381 mg/kg; in series [6], 99 mg/kg.
With `CCC1(C)CC(=O)NC1=O` (stereo not shown) [ETS, Ethosuximide, reference compound], the ED50 in series [1] was greater than 1200 mg/kg; in series [2], 54 mg/kg; in series [3], greater than 1000 mg/kg; in series [4] it was 130 mg/kg. In series [6], the “TD50 (median neurological toxic dose)” value is on record as 441 mg/kg.
For the molecule `CCCC(CCC)C(=O)O` [Valproic Acid, reference compound], the median effective dose (ED50) in series [1] is 490 mg/kg; in series [2] it was 180 mg/kg; in series [4], 149 mg/kg. Further, the adverse side effects result in series [7] was “considerable adverse side effects including hepatoxicity and teratogenicity”.
